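Here, GI50 denotes the concentration required for 50% inhibition of growth. TGI: concentration producing complete growth inhibition.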
Columns and labels:
Assay in all cases: NCI-60 cell line screen, 384-well format
CCRF-CEM leukemia = system: CCRF-CEM leukemia
UO-31 renal = system: UO-31 renal
MOLT-4 leukemia = system: MOLT-4 leukemia
MALME-3M melanoma = system: MALME-3M melanoma
U251 glioblastoma = system: U251 glioblastoma
NCI/ADR-RES ovarian = system: NCI/ADR-RES ovarian
SK-MEL-5 melanoma = system: SK-MEL-5 melanoma
HCT-116 colon = system: HCT-116 colon
SR leukemia = system: SR leukemia
SN12C renal = system: SN12C renal
NCI-H522 lung = system: NCI-H522 lung
SW-620 colon = system: SW-620 colon
MDA-MB-231 breast = system: MDA-MB-231 breast
HCC-2998 colon = system: HCC-2998 colon
PC-3 prostate = system: PC-3 prostate
HOP-62 NSCLC = system: HOP-62 NSCLC
MDA-MB-435 melanoma = system: MDA-MB-435 melanoma
RPMI-8226 leukemia = system: RPMI-8226 leukemia
OVCAR-8 ovarian = system: OVCAR-8 ovarian
SF-268 CNS = system: SF-268 CNS
K-562 leukemia = system: K-562 leukemia
ACHN renal = system: ACHN renal
UACC-62 melanoma = system: UACC-62 melanoma
UACC-257 melanoma = system: UACC-257 melanoma
SNB-19 CNS = system: SNB-19 CNS
SNB-75 CNS = system: SNB-75 CNS
EKVX NSCLC = system: EKVX NSCLC
NCI-H23 lung = system: NCI-H23 lung
M14 melanoma = system: M14 melanoma
RXF 393 renal = system: RXF 393 renal
TK-10 renal = system: TK-10 renal
SK-MEL-28 melanoma = system: SK-MEL-28 melanoma
LOX IMVI melanoma = system: LOX IMVI melanoma
IGROV1 ovarian = system: IGROV1 ovarian
786-0 renal = system: 786-0 renal
COLO 205 colon = system: COLO 205 colon
T-47D breast = system: T-47D breast
HS 578T breast = system: HS 578T breast
A498 renal = system: A498 renal
A549 NSCLC = system: A549 NSCLC
NCI-H322M lung = system: NCI-H322M lung
SF-295 CNS = system: SF-295 CNS
NCI-H226 lung = system: NCI-H226 lung
OVCAR-4 ovarian = system: OVCAR-4 ovarian
SK-OV-3 ovarian = system: SK-OV-3 ovarian
HL-60(TB) leukemia = system: HL-60(TB) leukemia
HOP-92 NSCLC = system: HOP-92 NSCLC
HT29 colon = system: HT29 colon
MDA-MB-468 breast = system: MDA-MB-468 breast
OVCAR-3 ovarian = system: OVCAR-3 ovarian
HCT-15 colon = system: HCT-15 colon
CAKI-1 renal = system: CAKI-1 renal
BT-549 breast = system: BT-549 breast
SF-539 CNS = system: SF-539 CNS
MCF7 breast = system: MCF7 breast
KM12 colon = system: KM12 colon
NCI-H460 NSCLC = system: NCI-H460 NSCLC
DU-145 prostate = system: DU-145 prostate

## Cc1cc(O)c(-c2ccc([C@@H](C)CN(C)C)cc2)c2c1[nH]c(=O)c1sccc12
CCRF-CEM leukemia
  GI50: 199 nM
  TGI: 399 nM
UO-31 renal
  GI50: 266 nM
  TGI: 663 nM
MOLT-4 leukemia
  GI50: 156 nM
  TGI: 295 nM
MALME-3M melanoma
  GI50: 1000 nM
  TGI: 2190 nM
U251 glioblastoma
  GI50: 173 nM
  TGI: 1100 nM
NCI/ADR-RES ovarian
  GI50: 2060 nM
  TGI: 4650 nM
SK-MEL-5 melanoma
  GI50: 233 nM
  TGI: 547 nM
HCT-116 colon
  GI50: 200 nM
  TGI: 383 nM
SR leukemia
  GI50: 75.7 nM
  TGI: 179 nM
SN12C renal
  GI50: 224 nM
  TGI: 571 nM
NCI-H522 lung
  GI50: 180 nM
  TGI: 350 nM
SW-620 colon
  GI50: 443 nM
  TGI: 1260 nM
MDA-MB-231 breast
  GI50: 265 nM
  TGI: 682 nM
HCC-2998 colon
  GI50: 197 nM
  TGI: 467 nM
PC-3 prostate
  GI50: 286 nM
  TGI: 757 nM
HOP-62 NSCLC
  GI50: 206 nM
  TGI: 401 nM
MDA-MB-435 melanoma
  GI50: 444 nM
  TGI: 1430 nM
RPMI-8226 leukemia
  GI50: 36.8 nM
  TGI: 108 nM
OVCAR-8 ovarian
  GI50: 223 nM
  TGI: 447 nM
SF-268 CNS
  GI50: 338 nM
  TGI: 1420 nM
K-562 leukemia
  GI50: 295 nM
  TGI: 746 nM
ACHN renal
  GI50: 357 nM
  TGI: 1240 nM
UACC-62 melanoma
  GI50: 283 nM
  TGI: 888 nM
UACC-257 melanoma
  GI50: 831 nM
  TGI: 2090 nM
SNB-19 CNS
  GI50: 335 nM
  TGI: 1110 nM
SNB-75 CNS
  GI50: 159 nM
  TGI: 753 nM
EKVX NSCLC
  GI50: 451 nM
  TGI: 1500 nM
NCI-H23 lung
  GI50: 212 nM
  TGI: 446 nM
M14 melanoma
  GI50: 413 nM
  TGI: 1250 nM
RXF 393 renal
  GI50: 14.6 nM
  TGI: 31.7 nM
TK-10 renal
  GI50: 265 nM
  TGI: 713 nM
SK-MEL-28 melanoma
  GI50: 284 nM
  TGI: 1610 nM
LOX IMVI melanoma
  GI50: 253 nM
  TGI: 580 nM
IGROV1 ovarian
  GI50: 362 nM
  TGI: 1270 nM
786-0 renal
  GI50: 50 nM
  TGI: 193 nM
COLO 205 colon
  GI50: 1990 nM
  TGI: 4050 nM
T-47D breast
  GI50: 1200 nM
  TGI: 5800 nM
HS 578T breast
  GI50: 129 nM
  TGI: 289 nM
A498 renal
  GI50: 160 nM
  TGI: 319 nM
A549 NSCLC
  GI50: 225 nM
  TGI: 482 nM
NCI-H322M lung
  GI50: 411 nM
  TGI: 1210 nM
SF-295 CNS
  GI50: 1810 nM
  TGI: 3680 nM
NCI-H226 lung
  GI50: 285 nM
  TGI: 662 nM
OVCAR-4 ovarian
  GI50: 199 nM
  TGI: 400 nM
SK-OV-3 ovarian
  GI50: 171 nM
  TGI: 410 nM
HL-60(TB) leukemia
  GI50: 19.7 nM
  TGI: 37.5 nM
HOP-92 NSCLC
  GI50: 357 nM
  TGI: 2120 nM
HT29 colon
  GI50: 1780 nM
  TGI: 3270 nM
MDA-MB-468 breast
  GI50: 27.8 nM
  TGI: 67.1 nM
OVCAR-3 ovarian
  GI50: 189 nM
  TGI: 381 nM
HCT-15 colon
  GI50: 378 nM
  TGI: 1390 nM
CAKI-1 renal
  GI50: 292 nM
  TGI: 996 nM
BT-549 breast
  GI50: 192 nM
  TGI: 451 nM
SF-539 CNS
  GI50: 133 nM
  TGI: 369 nM
MCF7 breast
  GI50: 63.6 nM
  TGI: 217 nM
KM12 colon
  GI50: 286 nM
  TGI: 850 nM
NCI-H460 NSCLC
  GI50: 186 nM
  TGI: 341 nM
DU-145 prostate
  GI50: 279 nM
  TGI: 706 nM

— PubChem BioAssay (NCI)
